Data as given in US7485655B2, “2-Aminothiazole allosteric enhancers of A1 adenosine receptors” (University of Virginia Patent Foundation, priority 2002, dated 2009).

Columns and labels:
[1] = system: chicken chorioallantoic membrane (CAM); test: CAM assay, drug applied daily on filter paper disc; type: in vivo; settings: for angiogenic response in the CAM (vessel density at edge of disk): 100 nM doses, 100 μl daily for 7 days on filter paper disk
human A3 receptor = target: T1, human A3 receptor (Homo sapiens, UniProt P0DMS8); settings: cited from earlier work
T1 sequence (P0DMS8 1-318): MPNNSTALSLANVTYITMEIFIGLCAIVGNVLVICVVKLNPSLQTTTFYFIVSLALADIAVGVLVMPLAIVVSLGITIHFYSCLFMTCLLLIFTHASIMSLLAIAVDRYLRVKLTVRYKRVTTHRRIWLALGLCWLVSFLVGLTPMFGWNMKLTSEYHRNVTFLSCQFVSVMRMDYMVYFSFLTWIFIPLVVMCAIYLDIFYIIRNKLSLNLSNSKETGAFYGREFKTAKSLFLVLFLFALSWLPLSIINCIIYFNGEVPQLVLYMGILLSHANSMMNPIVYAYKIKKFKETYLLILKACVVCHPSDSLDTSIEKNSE

rat mesentery = test: Rat mesentery angiogenesis, chronic intraperitoneal infusion by Alzet osmotic pump; type: in vivo; settings: chronic infusion via Alzet pumps into the peritoneal cavity of a rat
Description: Drug application into rat mesentery using infusion pumps. Alzet osmotic pumps were filled with drug or vehicle to a volume of 200 μl. The abdominal cavities of anesthetized 150 g Sprague-Dawley rats were incised and pumps implanted into the intraperitoneal cavity. The pumps delivered the drug at 1.0 μl/hr. After one week mesenteric samples were taken between vascular arcades along the length of the small bowel. Specimens were fixed and stained using a BS:lectin stain.
The chronic infusion was an advantage because the model is not an ischemic one, so steady long term administration of the PD 81,723 may help to augment the effects of lower concentrations of endogenous adenosine.

[2] = system: chicken chorioallantoic membrane (CAM); test: CAM assay, adenosine applied via Elvax pellets; type: in vivo; settings: Elvax pellet with 3 mg adenosine, left in place seven days
Description: Fertile White Leghorn chicken eggs were obtained from Truslow Farms (Chesterfield, Mo.). Eggs were incubated at 37° for 7 days, then a 1.5 cm window was cut into each egg over the CAM. Pellets were applied to the CAMS and the windows closed with cellophane tape. Eggs were incubated until day 14 when the CAMS were fixed. […] The pellets were placed on the CAM where there were a few vessels present and were left in place for seven days. The CAMS then were fixed in 10% buffered formalin and vessels were counted under 20× magnification using a Nikon stereomicroscope. The quantitation of vascular number is presented as vascular density index VDI that was an adaptation of a method described by Harris-Hooker (Harris-Hooker et al., Neovascular Responses Induced by Cultured Aortic Endothelial Cells, J Cell. Phys., 114, 302-310, 1983). A plastic cover slip inscribed with 4, 5, 6, and 8 mm diameter concentric circles was centered over the adenosine pellet on the formalin-fixed CAM. The vascular density was judged by counting the numbers of the vessels which intersected the circles. This technique allowed counting of vessels down to 10-12 u in diameter. The positioning of the pellets on the CAM was randomized. […] Adenosine was delivered by other means as well.

In the case of `CCNC(=O)[C@H]1O[C@@H](n2cnc3c(N)nc(NCCc4ccc(CCC(=O)O)cc4)nc32)[C@H](O)[C@@H]1O` [CGS21680], the “angiogenic response in the CAM (vessel density at edge of disk)” value (“angiogenic response in the CAM” for short) [1] was “No angiogenic response”.

In the case of `CCOC(=O)C1=C(C)NC(c2ccccc2)=C(C(=O)OCc2ccccc2)C1C#Cc1ccccc1` (centres unmarked) [MRS1191], the “selectivity for the human A3 over the A1 receptor” value (human A3 receptor) is given as over 1300 fold.

For `CNC(=O)[C@H]1O[C@@H](n2cnc3c(NCc4cccc(I)c4)ncnc32)[C@H](O)[C@@H]1O` [m-MECA, N^6-iodobenzyl-5′-N-methyl-carboxamidoadenosine], the “angiogenic response in the CAM” value [1] was “positive angiogenic response”.

For `CCCn1c(=O)c2[nH]c(-c3ccc(OCC(=O)NCCN)cc3)nc2n(CCC)c1=O` [XAC, xanthine amine congener], the “effect on baseline angiogenesis in the CAM” value ([1]; nonselective antagonist alone, filter paper disk, four eggs) was “did not inhibit baseline angiogenesis”.

With `OC[C@H]1O[C@@H](n2cnc3c(NC4CCCC4)ncnc32)[C@H](O)[C@@H]1O` [CPA, Cyclopentyladenosine] the “stimulation of angiogenesis in the CAM at low dose” value ([1]; 20 nM CPA alone) was “did not stimulate angiogenesis” and the “angiogenic response in the CAM” value [1] was “positive angiogenic response”.

For `CCNC(=O)[C@H]1O[C@@H](n2cnc3c(N)ncnc32)[C@H](O)[C@@H]1O` [NECA], the “angiogenic response in the CAM” value [1] was “positive angiogenic response”.

In the case of `Cc1sc(N)c(C(=O)c2cccc(C(F)(F)F)c2)c1C` [PD 81,723], the “angiogenesis in mature mammalian animal model” value (rat mesentery) was “Stimulation of angiogenesis” and the “stimulation of angiogenesis in the CAM” value ([1]; 100 μM on filter paper disc, versus vehicle, no applied agonist) was 10%.

With `CC(C)N(C)c1nc2c(N[C@@H]3CC4CC3CC4O)ncnc2n1C` (some centres unmarked) [WRC-0571] the “block of C17-stimulated angiogenesis in the CAM” value ([1]; C17 plus WRC-0571) was “blocked”, the “block of angiogenic effect of CPA in the CAM” value ([1]; CPA 100 nM with 1 μM WRC-0571) was “completely blocked” and the “block of the effects of PD on angiogenesis in the CAM” value ([1]; PD plus WRC-0571) was “completely blocked”. For the same compound, the “block of the effects of endogenous adenosine in the CAM” value ([1]; in vivo) was “blocked the effects of endogenous adenosine”.

With `Nc1ncnc2c1ncn2[C@@H]1O[C@H](CO)[C@@H](O)[C@H]1O` [Adenosine] the “angiogenesis in the windowed CAM model (vascular density index)” value [2] was “stimulated angiogenesis”.
